Species on record: Rattus norvegicus
Experiment: DrugMatrix - Regimen: Daily Repeat
Assay type: toxicity, organism-based, Sprague-Dawley
Set-up: regimen Daily Repeat, gender Male, age 6-8 weeks
Settings: in vivo, po, route oral GAVAGE, vehicle 100 % WATER; for ABSOLUTE BASOPHIL / ABSOLUTE EOSINOPHIL / ABSOLUTE LYMPHOCYTE / ABSOLUTE MONOCYTE / ABSOLUTE SEGMENTED NEUTROPHIL / BASOPHIL / EOSINOPHIL / ERYTHROCYTE COUNT / HEMATOCRIT / HEMOGLOBIN / LEUKOCYTE COUNT / LYMPHOCYTE / MEAN CORPUSCULAR HEMOGLOBIN / MEAN CORPUSCULAR HEMOGLOBIN CONCENTRATION / MEAN CORPUSCULAR VOLUME / MONOCYTE / NEUTROPHIL / NUCLEATED RED BLOOD CELLS / PLATELET COUNT: tissue Blood; for ALANINE AMINOTRANSFERASE / ALBUMIN / ALKALINE PHOSPHATASE / ASPARTATE AMINOTRANSFERASE / BLOOD UREA NITROGEN / CARBON DIOXIDE / CHLORIDE / CHOLESTEROL / CREATINE PHOSPHOKINASE / CREATININE / GLUCOSE / LACTATE DEHYDROGENASE / LIPASE / PHOSPHORUS / POTASSIUM / SODIUM / TOTAL BILIRUBIN / TOTAL PROTEIN / URIC ACID: tissue Plasma
[1] = 0 mg/kg, 72 h, dose level Control, time 3 day
[2] = 0 mg/kg, 120 h, dose level Control, time 5 day
[3] = 31 mg/kg, 72 h, dose level Low, time 3 day

Nc1ccc(S(=O)(=O)Nc2nccs2)cc1 [SULFATHIAZOLE]
ABSOLUTE BASOPHIL [1]: 0 CELLS/uL
ABSOLUTE EOSINOPHIL [1]: 0 CELLS/uL
ABSOLUTE LYMPHOCYTE [1]: 8482.5 CELLS/uL
ABSOLUTE MONOCYTE [1]: 63.83 CELLS/uL
ABSOLUTE SEGMENTED NEUTROPHIL [1]: 887 CELLS/uL
BASOPHIL [1]: 0%
EOSINOPHIL [1]: 0%
ERYTHROCYTE COUNT [1]: 5.49 x10E6/uL
HEMATOCRIT [1]: 34.5%
HEMOGLOBIN [1]: 13.33 G/DL
LEUKOCYTE COUNT [1]: 9.43 x10E3/uL
LYMPHOCYTE [1]: 90.17%
MEAN CORPUSCULAR HEMOGLOBIN [1]: 24.3 pg
MEAN CORPUSCULAR HEMOGLOBIN CONCENTRATION [1]: 38.63 G/DL
MEAN CORPUSCULAR VOLUME [1]: 62.88 fL
MONOCYTE [1]: 0.67%
NEUTROPHIL [1]: 9.17%
NUCLEATED RED BLOOD CELLS [1]: 0.67 /100WBC
PLATELET COUNT [1]: 1022.83 x10E3/uL
ALANINE AMINOTRANSFERASE [1]: 50.5 u/L
ALBUMIN [1]: 4.08 G/DL
ALKALINE PHOSPHATASE [1]: 368.33 u/L
ASPARTATE AMINOTRANSFERASE [1]: 87.5 u/L
BLOOD UREA NITROGEN [1]: 12.83 mg/dL
CARBON DIOXIDE [1]: 32.83 mmol/L
CHLORIDE [1]: 99.67 MEQ/L
CHOLESTEROL [1]: 79.67 mg/dL
CREATINE PHOSPHOKINASE [1]: 585 u/L
CREATININE [1]: 0.22 mg/dL
GLUCOSE [1]: 135.67 mg/dL
LACTATE DEHYDROGENASE [1]: 171 u/L
LIPASE [1]: 9.5 u/L
PHOSPHORUS [1]: 11.18 mg/dL
POTASSIUM [1]: 6.25 MEQ/L
SODIUM [1]: 144.87 MEQ/L
TOTAL BILIRUBIN [1]: 0.2 mg/dL
TOTAL PROTEIN [1]: 6.08 G/DL
URIC ACID [1]: 0.65 mg/dL
ABSOLUTE BASOPHIL [2]: 0 CELLS/uL
ABSOLUTE EOSINOPHIL [2]: 14.5 CELLS/uL
ABSOLUTE LYMPHOCYTE [2]: 7596.17 CELLS/uL
ABSOLUTE MONOCYTE [2]: 69.67 CELLS/uL
ABSOLUTE SEGMENTED NEUTROPHIL [2]: 503 CELLS/uL
BASOPHIL [2]: 0%
EOSINOPHIL [2]: 0.17%
ERYTHROCYTE COUNT [2]: 5.49 x10E6/uL
HEMATOCRIT [2]: 34.72%
HEMOGLOBIN [2]: 13.47 G/DL
LEUKOCYTE COUNT [2]: 8.18 x10E3/uL
LYMPHOCYTE [2]: 92.17%
MEAN CORPUSCULAR HEMOGLOBIN [2]: 24.57 pg
MEAN CORPUSCULAR HEMOGLOBIN CONCENTRATION [2]: 38.82 G/DL
MEAN CORPUSCULAR VOLUME [2]: 63.3 fL
MONOCYTE [2]: 1%
NEUTROPHIL [2]: 6.67%
NUCLEATED RED BLOOD CELLS [2]: 0 /100WBC
PLATELET COUNT [2]: 1141 x10E3/uL
ALANINE AMINOTRANSFERASE [2]: 48.33 u/L
ALBUMIN [2]: 4.07 G/DL
ALKALINE PHOSPHATASE [2]: 395.67 u/L
ASPARTATE AMINOTRANSFERASE [2]: 85.67 u/L
BLOOD UREA NITROGEN [2]: 15.83 mg/dL
CARBON DIOXIDE [2]: 31.33 mmol/L
CHLORIDE [2]: 100.83 MEQ/L
CHOLESTEROL [2]: 62.33 mg/dL
CREATINE PHOSPHOKINASE [2]: 248.33 u/L
CREATININE [2]: 0.2 mg/dL
GLUCOSE [2]: 135.67 mg/dL
LACTATE DEHYDROGENASE [2]: 141.33 u/L
LIPASE [2]: 9.5 u/L
PHOSPHORUS [2]: 10.73 mg/dL
POTASSIUM [2]: 6.07 MEQ/L
SODIUM [2]: 145.35 MEQ/L
TOTAL BILIRUBIN [2]: 0.22 mg/dL
TOTAL PROTEIN [2]: 6.12 G/DL
URIC ACID [2]: 0.63 mg/dL
ABSOLUTE BASOPHIL [3]: 0 CELLS/uL
ABSOLUTE EOSINOPHIL [3]: 0 CELLS/uL
ABSOLUTE LYMPHOCYTE [3]: 8271.67 CELLS/uL
ABSOLUTE MONOCYTE [3]: 54.33 CELLS/uL
ABSOLUTE SEGMENTED NEUTROPHIL [3]: 707.33 CELLS/uL
BASOPHIL [3]: 0%
EOSINOPHIL [3]: 0%
ERYTHROCYTE COUNT [3]: 5.15 x10E6/uL
HEMATOCRIT [3]: 32.73%
HEMOGLOBIN [3]: 12.87 G/DL
LEUKOCYTE COUNT [3]: 9.03 x10E3/uL
LYMPHOCYTE [3]: 91.33%
MEAN CORPUSCULAR HEMOGLOBIN [3]: 25.13 pg
MEAN CORPUSCULAR HEMOGLOBIN CONCENTRATION [3]: 39.33 G/DL
MEAN CORPUSCULAR VOLUME [3]: 63.97 fL
MONOCYTE [3]: 0.67%
NEUTROPHIL [3]: 8%
NUCLEATED RED BLOOD CELLS [3]: 0 /100WBC
PLATELET COUNT [3]: 928 x10E3/uL
ALANINE AMINOTRANSFERASE [3]: 54.67 u/L
ALBUMIN [3]: 4.13 G/DL
ALKALINE PHOSPHATASE [3]: 375.67 u/L
ASPARTATE AMINOTRANSFERASE [3]: 86.67 u/L
BLOOD UREA NITROGEN [3]: 13.67 mg/dL
CARBON DIOXIDE [3]: 32 mmol/L
CHLORIDE [3]: 100.33 MEQ/L
CHOLESTEROL [3]: 70.33 mg/dL
CREATINE PHOSPHOKINASE [3]: 289 u/L
CREATININE [3]: 0.36 mg/dL
GLUCOSE [3]: 128.67 mg/dL
LACTATE DEHYDROGENASE [3]: 147.33 u/L
LIPASE [3]: 11.67 u/L
PHOSPHORUS [3]: 11.83 mg/dL
POTASSIUM [3]: 6.53 MEQ/L
SODIUM [3]: 144.47 MEQ/L
TOTAL BILIRUBIN [3]: 0.2 mg/dL
TOTAL PROTEIN [3]: 6.07 G/DL
URIC ACID [3]: 0.8 mg/dL
